Broadly, the IC50 is the concentration that inhibits the measured activity by half.

Bounds are passed on as bounds.

T1 sequence (P00533 25-1210 T790M/L858R): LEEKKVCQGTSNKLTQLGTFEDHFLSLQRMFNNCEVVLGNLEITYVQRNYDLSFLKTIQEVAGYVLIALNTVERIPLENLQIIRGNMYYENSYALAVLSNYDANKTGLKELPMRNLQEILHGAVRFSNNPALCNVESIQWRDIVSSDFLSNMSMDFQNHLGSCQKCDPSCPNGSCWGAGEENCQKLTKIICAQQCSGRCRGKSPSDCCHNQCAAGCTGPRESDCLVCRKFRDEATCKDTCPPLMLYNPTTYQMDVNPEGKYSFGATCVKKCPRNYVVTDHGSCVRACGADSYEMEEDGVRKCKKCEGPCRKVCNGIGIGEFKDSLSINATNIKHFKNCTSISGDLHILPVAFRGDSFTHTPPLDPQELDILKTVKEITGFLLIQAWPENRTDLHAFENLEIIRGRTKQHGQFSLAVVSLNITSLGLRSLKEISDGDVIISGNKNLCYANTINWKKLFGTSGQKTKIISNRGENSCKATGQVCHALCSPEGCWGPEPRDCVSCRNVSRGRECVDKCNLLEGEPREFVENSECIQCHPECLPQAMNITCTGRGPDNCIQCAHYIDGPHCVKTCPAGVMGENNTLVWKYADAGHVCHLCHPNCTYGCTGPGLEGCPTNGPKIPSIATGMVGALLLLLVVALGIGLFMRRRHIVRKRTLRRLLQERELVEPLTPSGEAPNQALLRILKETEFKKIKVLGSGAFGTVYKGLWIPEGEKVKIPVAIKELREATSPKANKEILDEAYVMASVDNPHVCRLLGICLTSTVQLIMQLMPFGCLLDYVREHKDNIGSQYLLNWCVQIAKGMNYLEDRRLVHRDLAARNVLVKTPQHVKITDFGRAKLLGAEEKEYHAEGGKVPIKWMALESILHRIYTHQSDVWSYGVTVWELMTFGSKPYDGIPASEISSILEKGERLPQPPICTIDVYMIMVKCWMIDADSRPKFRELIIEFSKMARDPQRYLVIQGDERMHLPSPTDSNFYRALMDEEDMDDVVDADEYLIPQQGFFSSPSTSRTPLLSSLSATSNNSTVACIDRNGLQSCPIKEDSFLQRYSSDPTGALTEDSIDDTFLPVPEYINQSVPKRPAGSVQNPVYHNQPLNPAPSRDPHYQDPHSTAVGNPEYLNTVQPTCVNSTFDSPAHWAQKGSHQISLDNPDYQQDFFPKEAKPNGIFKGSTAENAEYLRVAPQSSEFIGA

This assay has as its target T1, EGFR (L858R & T790M) (Homo sapiens, UniProt P00533, L858R/T790M).
T1 construct: GST; purchased Proqinase
The experiment in a line: EGFR (L858R & T790M) inhibition assay, HTRF method. As to conditions: biochemical HTRF; EGFR (T790M/L858R) 2.5 nM, ATP 5 μM, 60 min room temperature. Put shortly:
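GST-EGFR T790M/L858R (2.5 nM) phosphorylating biotinylated gastrin precursor peptide (0.5 μM) with 5 μM ATP in HEPES pH 7.4/Mg/Mn buffer, 60 min room temperature; compounds from 10 μM top. HTRF read-out (Eu anti-pTyr, SA-APC), 665/620 nm; IC50 from % inhibition.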
A general note: TR-FRET usually uses a lanthanide donor and a delayed reading to cut background.
`C=CC(=O)NC1CCC(Nc2nc(Nc3cnn(C)c3)ncc2Cl)CC1` (centres unmarked) [Compound I-94, N-(4-((5-chloro-2-((1-methyl-1H-pyrazol-4-yl)amino)pyrimidin-4-yl)amino)cyclohexyl)acrylamide]: the IC50 was above 100 nM.

In the case of `C=CC(=O)NC1CCCC(Nc2nc(Nc3cn(C)nc3Cl)ncc2Cl)C1` (centres unmarked) [Compound I-95, N-(3-((5-chloro-2-((3-chloro-1-methyl-1H-pyrazol-4-yl)amino)pyrimidin-4-yl)amino)cyclohexyl)acrylamide], the IC50 lay in the range of 10 to 100 nM.

Take `C=CC(=O)NC1CCCC(Nc2nc(Nc3cc(Cl)n(C)n3)ncc2Cl)C1` (centres unmarked) [Compound I-97, N-(3-((5-chloro-2-((5-chloro-1-methyl-1H-pyrazol-3-yl)amino)pyrimidin-4-yl)amino)cyclohexyl)acrylamide]: the IC50 is above 100 nM.

With `C=CC(=O)NC1CCCC(Nc2nc(Nc3cc(COC)n(C)n3)ncc2Cl)C1` (centres unmarked) [Compound I-98, N-(3-((5-chloro-2-((5-(methoxymethyl)-1-methyl-1H-pyrazol-3-yl)amino)pyrimidin-4-yl)amino)cyclohexyl)acrylamide], the IC50 is above 100 nM.

In the case of `C=CC(=O)NC1CCCC(Nc2nc(Nc3cnn(CCN(C)C)c3)ncc2Cl)C1` (centres unmarked) [Compound I-99, N-(3-((5-chloro-2-((1-(2-(dimethylamino)ethyl)-1H-pyrazol-4-yl)amino)pyrimidin-4-yl)amino)cyclohexyl)acrylamide], the IC50 was above 100 nM.

On to `C=CC(=O)NC1CCCC(Nc2nc(Nc3cnn(C)c3)ncc2C)C1` (centres unmarked) [Compound I-100, N-(3-((5-methyl-2-((1-methyl-1H-pyrazol-4-yl)amino)pyrimidin-4-yl)amino)cyclohexyl)acrylamide], for which the IC50 is above 100 nM.

With `CN(C)C/C=C/C(=O)NC1CCCC(Nc2nc(Nc3cnn(C)c3)ncc2Cl)C1` (centres unmarked) [Compound I-101, (E)-N-(3-((5-chloro-2-((1-methyl-1H-pyrazol-4-yl)amino)pyrimidin-4-yl)amino)cyclohexyl)-4-(dimethylamino)but-2-enamide], the IC50 was above 100 nM.

Consider `C=CC(=O)NCC1CCCC(Nc2nc(Nc3cnn(C)c3)ncc2Cl)C1` (centres unmarked) [Compound I-108, N-((3-((5-chloro-2-((1-methyl-1H-pyrazol-4-yl)amino)pyrimidin-4-yl)amino)cyclohexyl)methyl)acrylamide], for which the IC50 is above 100 nM.

Turning to `CN(C)C/C=C/C(=O)NCC1CCCC(Nc2nc(Nc3cnn(C)c3)ncc2Cl)C1` (centres unmarked) [Compound I-109, (E)-N-((3-((5-chloro-2-((1-methyl-1H-pyrazol-4-yl)amino)pyrimidin-4-yl)amino)cyclohexyl)methyl)-4-(dimethylamino)but-2-enamide], the IC50 is above 100 nM.

For `C=CC(=O)N(C)c1ccc(F)c(Nc2nc(Nc3cnn(C)c3)ncc2Cl)c1` [Compound I-110, N-(3-((5-chloro-2-((1-methyl-1H-pyrazol-4-yl)amino)pyrimidin-4-yl)amino)-4-fluorophenyl)-N-methylacrylamide], the IC50 was above 100 nM.

In the case of `C=CC(=O)Nc1ccc(F)c(N(C)c2nc(Nc3cnn(C)c3)ncc2Cl)c1` [Compound I-111, N-(3-((5-chloro-2-((1-methyl-1H-pyrazol-4-yl)amino)pyrimidin-4-yl)(methyl)amino)-4-fluorophenyl)acrylamide], the half-maximal inhibitory concentration (IC50) was below 10 nM.

As for `C=CC(=O)NC1CCCC(Nc2nc(Nc3cc(C)ns3)ncc2Cl)C1` (centres unmarked) [Compound I-114, N-(3-((5-chloro-2-((3-methylisothiazol-5-yl)amino)pyrimidin-4-yl)amino)cyclohexyl)acrylamide], the IC50 is 10 to 100 nM.

Regarding `Cc1cc(Nc2ncc(Cl)c(NC3CCCC(NC(=O)/C=C/CN(C)C)C3)n2)sn1` (centres unmarked) [Compound I-115, (E)-N-(3-((5-chloro-2-((3-methylisothiazol-5-yl)amino)pyrimidin-4-yl)amino)cyclohexyl)-4-(dimethylamino)but-2-enamide], the IC50 is above 100 nM.

As for `C=CC(=O)Nc1ccnc(Nc2nc(Nc3cnn(C)c3)ncc2Cl)c1` [Compound I-116, N-(2-((5-chloro-2-((1-methyl-1H-pyrazol-4-yl)amino)pyrimidin-4-yl)amino)pyridin-4-yl)acrylamide], the IC50 fell in the range of 10 to 100 nM.

`C=CC(=O)Nc1ccc(F)c(Nc2nc(Nc3cc(C)ns3)ncc2Cl)c1` [Compound I-117, N-(3-((5-chloro-2-((3-methylisothiazol-5-yl)amino)pyrimidin-4-yl)amino)-4-fluorophenyl)acrylamide]: the IC50 is below 10 nM.

Take `C=CC(=O)Nc1ccc(F)c(Nc2nc(Nc3cc(C)no3)ncc2Cl)c1` [Compound I-118, N-(3-((5-chloro-2-((3-methylisoxazol-5-yl)amino)pyrimidin-4-yl)amino)-4-fluorophenyl)acrylamide]: the IC50 was in the range of 10 to 100 nM.

Turning to `C=CC(=O)Nc1ccc(F)c(Nc2nc(Nc3onc(C)c3C)ncc2Cl)c1` [Compound I-119, N-(3-((5-chloro-2-((3,4-dimethylisoxazol-5-yl)amino)pyrimidin-4-yl)amino)-4-fluorophenyl)acrylamide], the IC50 was above 100 nM.

Turning to `C=CC(=O)Nc1ccc(F)c(Nc2nc(Nc3ncc(Cl)s3)ncc2Cl)c1` [Compound I-120, N-(3-((5-chloro-2-((5-chlorothiazol-2-yl)amino)pyrimidin-4-yl)amino)-4-fluorophenyl)acrylamide], the IC50 was above 100 nM.

In the case of `C=CC(=O)Nc1ccc(F)c(Nc2nc(Nc3ncc(C#N)s3)ncc2Cl)c1` [Compound I-121, N-(3-((5-chloro-2-((5-cyanothiazol-2-yl)amino)pyrimidin-4-yl)amino)-4-fluorophenyl)acrylamide], the IC50 was above 100 nM.

Consider `C=CC(=O)Nc1cccc(Nc2nc(Nc3cc(C)ns3)ncc2Cl)c1` [Compound I-122, N-(3-((5-chloro-2-((3-methylisothiazol-5-yl)amino)pyrimidin-4-yl)amino)phenyl)acrylamide], for which the IC50 is below 10 nM.

Take `C=CC(=O)Nc1cccc(Nc2nc(Nc3ncc(C)s3)ncc2Cl)c1` [Compound I-123, N-(3-((5-chloro-2-((5-methylthiazol-2-yl)amino)pyrimidin-4-yl)amino)phenyl)acrylamide]: the IC50 was 10 to 100 nM.

Take `C=CC(=O)Nc1cccc(Nc2nc(Nc3nc(C)cs3)ncc2Cl)c1` [Compound I-124, N-(3-((5-chloro-2-((4-methylthiazol-2-yl)amino)pyrimidin-4-yl)amino)phenyl)acrylamide]: the IC50 is 10 to 100 nM.

For `C=CC(=O)Nc1cccc(Nc2nc(Nc3cc(C)no3)ncc2Cl)c1` [Compound I-125, N-(3-((5-chloro-2-((3-methylisoxazol-5-yl)amino)pyrimidin-4-yl)amino)phenyl)acrylamide], the IC50 lay in the range of 10 to 100 nM.

Regarding `C=CC(=O)NC1CCCC(Nc2nc(Nc3cnn(C)c3)ncc2Cl)C1` (centres unmarked) [Compound I-126, N-(3-((5-chloro-2-((1-methyl-1H-pyrazol-4-yl)amino)pyrimidin-4-yl)amino)cyclohexyl)acrylamide 4-methylbenzenesulfonate], the IC50 is above 100 nM.

In the case of `C=CC(=O)N1CCC(Nc2nc(Nc3cnn(C)c3)ncc2Cl)CC1` [II-8, 1-(4-((5-chloro-2-((1-methyl-1H-pyrazol-4-yl)amino)pyrimidin-4-yl)amino)piperidin-1-yl)prop-2-en-1-one], the IC50 is above 100 nM.

Regarding `C=CC(=O)N1CCCC(CNc2nc(Nc3cnn(C)c3)ncc2Cl)C1` (centres unmarked) [II-9, 1-(3-(((5-chloro-2-((1-methyl-1H-pyrazol-4-yl)amino)pyrimidin-4-yl)amino)methyl)piperidin-1-yl)prop-2-en-1-one], the IC50 is above 100 nM.

For the origin of these results see patent US10273224B2, “Substituted pyrimidine compounds, compositions and medicinal applications thereof” (JUBILANT BIOSYS LIMITED, priority 2013, dated 2019).
